Measurements as given in the NIST ThermoML archive (doi:10.1016/j.jct.2016.08.008).

Tests used:
[1] = for viscosity / mass density: 101.33 kPa, Liquid; for viscosity: Falling or rolling sphere viscometry; for mass density: Vibrating tube method
[2] = Molar enthalpy of transition or fusion; conditions: Crystal; DSC
[3] = activity coefficient (dimensionless); of the first substance listed, at infinite dilution; xn = mol fraction of the nth substance listed; conditions: 101.33 kPa, Liquid, Chromatography, x1 = 0

CCCCCCCCCCCCn1cc[n+](C)c1.O=S(=O)([N-]S(=O)(=O)C(F)(F)F)C(F)(F)F
[1]
Conditions	mass density [kg/m3]	viscosity [mPa·s]
298.15 K	1242.9	125
303.15 K	1238.8	–
308.15 K	1234.6	76.7
313.15 K	1230.4	–
318.15 K	1226.2	52.7
323.15 K	1222	–
328.15 K	1217.8	37
333.15 K	1213.6	–
338.15 K	1209.5	26.6
343.15 K	1205.3	–
348.15 K	1201.2	19.5
353.15 K	1197.1	–
358.15 K	1193	14.7
363.15 K	1188.9	–
368.15 K	1184.9	11.4

Conditions	Normal melting temperature [°C]
[1], Crystal, DTA	19.2

Conditions	Molar enthalpy of transition or fusion [kcal/mol]
[2]	8.6

CCOC(C)=O [ethyl acetate] + CCCCCCCCCCCCn1cc[n+](C)c1.O=S(=O)([N-]S(=O)(=O)C(F)(F)F)C(F)(F)F
[3]
Conditions	activity coefficient
318.15 K	0.541
328.15 K	0.567
338.15 K	0.593
348.15 K	0.619
358.15 K	0.645
368.15 K	0.67

CCc1ccccc1 [ethylbenzene] + CCCCCCCCCCCCn1cc[n+](C)c1.O=S(=O)([N-]S(=O)(=O)C(F)(F)F)C(F)(F)F
[3]
Conditions	activity coefficient
318.15 K	0.911
328.15 K	0.951
338.15 K	0.992
348.15 K	1.03
358.15 K	1.07
368.15 K	1.11

CCCCCCC [heptane] + CCCCCCCCCCCCn1cc[n+](C)c1.O=S(=O)([N-]S(=O)(=O)C(F)(F)F)C(F)(F)F
[3]
Conditions	activity coefficient
318.15 K	3.55
328.15 K	3.6
338.15 K	3.65
348.15 K	3.7
358.15 K	3.74
368.15 K	3.78

C=CCCCC [hex-1-ene] + CCCCCCCCCCCCn1cc[n+](C)c1.O=S(=O)([N-]S(=O)(=O)C(F)(F)F)C(F)(F)F
[3]
Conditions	activity coefficient
318.15 K	2.15
328.15 K	2.2
338.15 K	2.25
348.15 K	2.29
358.15 K	2.34
368.15 K	2.38

CCCCCC [hexane] + CCCCCCCCCCCCn1cc[n+](C)c1.O=S(=O)([N-]S(=O)(=O)C(F)(F)F)C(F)(F)F
[3]
Conditions	activity coefficient
318.15 K	2.96
328.15 K	3.02
338.15 K	3.09
348.15 K	3.14
358.15 K	3.2
368.15 K	3.26

CC(C)c1ccccc1 [isopropylbenzene] + CCCCCCCCCCCCn1cc[n+](C)c1.O=S(=O)([N-]S(=O)(=O)C(F)(F)F)C(F)(F)F
[3]
Conditions	activity coefficient
318.15 K	1.15
328.15 K	1.2
338.15 K	1.24
348.15 K	1.28
358.15 K	1.32
368.15 K	1.36

CO [methanol] + CCCCCCCCCCCCn1cc[n+](C)c1.O=S(=O)([N-]S(=O)(=O)C(F)(F)F)C(F)(F)F
[3]
Conditions	activity coefficient
318.15 K	1.29
328.15 K	1.22
338.15 K	1.15
348.15 K	1.1
358.15 K	1.05
368.15 K	1.01

CCCC(=O)OC [methyl butanoate] + CCCCCCCCCCCCn1cc[n+](C)c1.O=S(=O)([N-]S(=O)(=O)C(F)(F)F)C(F)(F)F
[3]
Conditions	activity coefficient
318.15 K	0.613
328.15 K	0.643
338.15 K	0.674
348.15 K	0.704
358.15 K	0.733
368.15 K	0.762

COC(C)=O [methyl ethanoate] + CCCCCCCCCCCCn1cc[n+](C)c1.O=S(=O)([N-]S(=O)(=O)C(F)(F)F)C(F)(F)F
[3]
Conditions	activity coefficient
318.15 K	0.503
328.15 K	0.525
338.15 K	0.546
348.15 K	0.566
358.15 K	0.586
368.15 K	0.606

CCC(=O)OC [methyl propanoate] + CCCCCCCCCCCCn1cc[n+](C)c1.O=S(=O)([N-]S(=O)(=O)C(F)(F)F)C(F)(F)F
[3]
Conditions	activity coefficient
318.15 K	0.531
328.15 K	0.557
338.15 K	0.583
348.15 K	0.608
358.15 K	0.634
368.15 K	0.659

CC1CCCCC1 [methylcyclohexane] + CCCCCCCCCCCCn1cc[n+](C)c1.O=S(=O)([N-]S(=O)(=O)C(F)(F)F)C(F)(F)F
[3]
Conditions	activity coefficient
318.15 K	2.42
328.15 K	2.46
338.15 K	2.49
348.15 K	2.52
358.15 K	2.55
368.15 K	2.58
